Molecular target: T1, guanylate cyclase (Oryctolagus cuniculus, UniProt G1TXB5)
T1 sequence (G1TXB5 28-1056): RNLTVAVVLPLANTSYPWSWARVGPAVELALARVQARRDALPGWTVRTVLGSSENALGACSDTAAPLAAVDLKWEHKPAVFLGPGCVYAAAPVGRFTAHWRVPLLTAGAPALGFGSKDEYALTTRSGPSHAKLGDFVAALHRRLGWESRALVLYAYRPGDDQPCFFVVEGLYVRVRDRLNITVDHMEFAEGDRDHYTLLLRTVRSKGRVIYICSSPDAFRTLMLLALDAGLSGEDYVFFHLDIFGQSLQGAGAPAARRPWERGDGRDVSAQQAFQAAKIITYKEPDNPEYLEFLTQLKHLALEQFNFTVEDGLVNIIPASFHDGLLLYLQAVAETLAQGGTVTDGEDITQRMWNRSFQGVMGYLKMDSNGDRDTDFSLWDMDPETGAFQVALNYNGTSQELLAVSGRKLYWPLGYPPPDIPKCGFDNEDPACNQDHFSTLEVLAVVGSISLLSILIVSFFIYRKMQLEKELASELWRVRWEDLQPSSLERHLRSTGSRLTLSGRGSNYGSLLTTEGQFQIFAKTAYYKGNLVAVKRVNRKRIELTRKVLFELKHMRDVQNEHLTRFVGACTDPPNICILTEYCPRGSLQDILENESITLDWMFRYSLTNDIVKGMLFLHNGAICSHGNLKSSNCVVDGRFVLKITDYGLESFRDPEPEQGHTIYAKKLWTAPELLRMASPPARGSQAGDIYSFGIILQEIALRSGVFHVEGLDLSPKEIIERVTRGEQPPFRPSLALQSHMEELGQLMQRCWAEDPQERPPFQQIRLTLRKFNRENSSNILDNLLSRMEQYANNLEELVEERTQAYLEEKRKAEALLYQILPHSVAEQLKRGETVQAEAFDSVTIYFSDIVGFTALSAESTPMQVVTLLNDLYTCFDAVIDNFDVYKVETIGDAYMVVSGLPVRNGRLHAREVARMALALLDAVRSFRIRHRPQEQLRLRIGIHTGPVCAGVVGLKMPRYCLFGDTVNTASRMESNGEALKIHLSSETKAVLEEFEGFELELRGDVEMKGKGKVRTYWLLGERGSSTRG
Test: rANP activation of membrane-bound guanylate cyclase in purified cerebral microvessels
Type: biochemical
Design: tissues were homogenized (10 mg wet weight per milliliter); from tissue; host or cells: rabbit cerebral microvessels, choroid plexus, kidney, ciliary process, pia-arachnoid, cerebellum; 100,000 g P1 pellet
Details: purified rabbit cerebral microvessels, Fig. 1a
Method: The effect of rANP on membrane-bound guanylate cyclase and adenylate cyclase activity in various brain-barrier tissues and tissue fractions from rabbit was compared with its activity in cerebrum and cerebellum. Guanylate cyclase was measured as the rate of cyclic GMP formation by modifications of the technique of Waldman et al., supra, incorporated herein by reference. Briefly, tissues were homogenized (10 mg wet weight per milliliter) in 50 mM tris-HCl, pH 8.0, 1 mM EDTA, 1 mM dithiothreitol, and 250 mM sucrose and centrifuged at 100,000g to obtain a P1 pellet. Reaction tubes contained (in 0.3 ml), 50 mM tris, pH 7.6, 6 mM MnCl₂, 0.5 mM 3-isobutyl, 1-methylxanthine (IBMX), 10 mM theophylline, 3 mM GTP, hormone (in 0.03 ml containing 2.5 mM ascorbic acid and 0.1% bovine serum albumin), and 0.06 ml of P1 fraction (40 to 60 ug of protein). The reaction (4 minutes at 30°C) was started by addition of GTP and terminated by addition of 0.3 ml of 150 mM sodium acetate (pH 4.0) and boiling for 3 minutes. Cyclic GMP formed was subsequently measured by radioimmunoassay as described in example 6, infra. Under these conditions, guanylate cyclase activity was linear with time and tissue concentration. Adenylate cyclase activity in P1 fractions was measured according to the method described by Nathanson, et al., Science; 204:843 (1979); Mol. Pharmacol. 18:199 (1980), see Figure 1C . […] Neurosci. […]

Substance: Ser-Leu-Arg-Arg-atriopeptin III (APIII) [rANP 1-28]
- maximum velocity of enzyme activity (Vmax): 215 % of control
